Data on five molecules can be found in patent US4241070A, “Analgesic benzomorphan derivatives” (priority 1975, dated 1980).

A short description of data set [1]: abstinence syndrome test (body weight after drug withdrawal). The settings on record: for Abstinence syndrome: subcutaneous, twice a day, male rats, body weight decrease the day after withdrawal. Here is the method:
Groups of male rats of Wister strain (body weight, 150 g), each group
consisting of 20 male rats, were subcutaneously given the test compound
twice a day for 4 consecutive weeks. On the next day after drug
withdrawal, body weight was measured. The symbols have the following
meanings: +++, severe decrease (about 5% decrease); ++, moderate decrease
+, mild decrease; -, no decrease. A marked decrease is taken as an […]

For data set [2] the following is noted: cited from earlier work.
The conditions of data set [3]: cited from earlier work. This is another data set of the same source.
Data set [4] deals with typical syndrome produced by intraperitoneal injection of 0.6% aqueous acetic acid. Kind of data set: writhing test (acetic acid). Type of data set: in vivo, mice. The settings on record: for ED50: Mus musculus. Here is the method:
The test was based on the specific antagonism of the test compound to
typical syndrome produced by intraperitoneal injection of 0.6% aqueous
acetic acid. The syndrome was characterized by intermittent contractions
of the abdomen, twisting and turning of the trunk and extension of the
hind legs. A group of 5 mice was used for each dose level. The test
compound was administered 60 minutes before the injection of acetic acid
subcutaneously (sc) or orally (po).
pain response was recorded. The ED50 value was calculated according
to the LitchfieldWilcoxen's method.
Background: Writhing tests count abdominal constrictions after an irritant is injected.

Where [5] appears, read: sc, subcutaneous, 60 minutes before acetic acid, mice, Litchfield-Wilcoxen, read-out: ED50 SC.
Setting [6] is: oral, 60 minutes before acetic acid, mice, Litchfield-Wilcoxen, read-out: ED50 PO.

Molecules are shown by their SMILES. Counter-ions that a name gives are not always drawn. Like-named read-outs stand apart in the source and are kept apart here.

Broadly, the ED50 is the dose that gives a 50% effect, or the effect in half of the subjects.

With `CC1C2Cc3ccc(O)cc3C1(C)CCN2C` (stereo not drawn) [2'-Hydroxy-2,5,9-trimethyl-6,7-benzomorphan], in data set [1] (20 mg/kg/day for 4 weeks), the Abstinence syndrome result is “++”. Further, the analgesia result in data set [2] (U.S. Pat. No. 3,138,603) is given as “potent analgesia”. Also, the addiction liability result in data set [3] (U.S. Pat. No. 3,138,603) is “has an addiction liability”.
For `CC(C)=CCN1CCC2(C)c3cc(O)ccc3CC1C2C` (stereo not drawn) [2'-hydroxy-5,9-dimethyl-2-(3"-methyl-2"-butenyl)-6,7-benzomorphan], the values for the ED50 in data set [4] (setting [5]) and in data set [4] (setting [6]) were 17.6 mg/kg and 98 mg/kg, respectively.
In the case of `CC1C2Cc3ccc(O)cc3C1(C)CCN2CCCC(=O)c1ccc(F)cc1` (stereo not drawn) [2-[γ-(p-fluorobenzoyl)-propyl]-2'-hydroxy-5,9-dimethyl-6,7-benzomorphan], the “effectiveness by route of administration” value in data set [2] (2-[γ-(p-fluorobenzoyl)-propyl]-2'-hydroxy-5,9-dimethyl-6,7-benzomorphan) is “effective when administered parenterally rather than orally”. The analgesic activity result in data set [2] (U.S. Pat. No. 3,833,595) is on record as “significant analgesic activity”. Besides, the drug addiction entry in data set [3] (U.S. Pat. No. 3,833,595) is reported as “without causing drug addiction”.
On to `Cc1ccc2c(c1)C1(C)CCN(CCCC(=O)c3ccc(F)cc3)C(C2)C1C` (stereo not drawn) [Example 1, 2-[γ-(p-Fluorobenzoyl)-propyl]-2',5,9-trimethyl-6,7-benzomorphan], for which the ED50 in data set [4] (setting [5]) was found to be 7.9 mg/kg; in data set [4] (setting [6]) it was 9.6 mg/kg. Besides, the “analgesic effectiveness compared with pentazocine” value in data set [4] (oral and subcutaneous administration) is on record as “more effective than pentazocine”. Moreover, the Abstinence syndrome result in data set [1] (40 mg/kg/day for 4 weeks) is listed as “-”. Also, the addictive property entry in data set [1] (as shown in Table 2) is “did not exhibit any addictive property”.
Regarding `CN1CC[C@]23c4c5ccc(O)c4O[C@H]2[C@@H](O)C=C[C@H]3[C@H]1C5` [Morphine . hydrochloride, Morphine], the ED50 is 7 mg/kg in data set [4] (po, read-out: ED50 PO) and 1.6 mg/kg in data set [4] (sc, read-out: ED50 SC).
